Data on one compound can be found in patent publication US20080003184A1, “Superparamagnetic Gadolinium Oxide Nanoscale Particles and Compositions Comprising Such Particles” (priority 2004, published 2008).

Like-named read-outs stand apart in the source and are kept apart here.

A short description of data set [1]: Relaxation time measurements (T1, T2 relaxivity) in H2O, 1.5 T scanner. It counts as physicochemical. The settings on record: 22-23° C. The procedure:
(§1) Samples of Gd2O3-DEG from Example 1 (with an average particle size of about 5 nm and a particle size range from about 1 to 15 nm) and Gd-DTPA (Magnevist®) were prepared in 10 mm NMR test tubes with H2O at 9 different Gd concentrations from […]. At measurement the test tubes were immersed in a bowl with saline at 22-23° C., which was the temperature of the scanner room.
(§2) T1 and T2 relaxation times were measured with a 1.5 T Philips Achieva whole body scanner using the head coil. A 2D mixed multi-echo SE interleaved with multi-echo IR sequence was used for the measurements [kleef_mrm—1987]. Imaging time parameters were varied to minimise the standard deviations in relaxation time calculations: TE=30 ms, TR (SE)=500 ms, TI=150 ms, and TR (IR)=1150 ms (set 1); TE=50 ms, TR (SE)=760 ms, TI=370 ms, and TR (IR)=2290 ms (set 2). Other MR parameters were: FOV=23 cm, slice thickness=7 mm, number of echoes=4.
In addition, samples of Gd2O3-DEG and Resovist® were prepared and tested under the same conditions as above. There were 6 different Gd and Fe concentrations between 0.1 and 1.5 mM. Resovist® is based on ferrocarbotran colloidal sol of superparamagnetic iron oxide nanoparticles (SPIO). The particles have a hydrodynamic diameter of 60 nm on an iron core of 4 nm. […] Accordingly, Gd2O3-DEG particles enable a contrast agent with complementary properties to those based on SPIO.

The nature of data set [2]: Signal intensity from first echo of spin echo sequence (TE=30 ms, TR=500 ms). It counts as physicochemical. Here is the method: as §1, §2
At higher concentrations (>0.9 mM) the strong T2 effect attenuated the signal for the nanoparticle samples. That is, the Gd2O3 sample reached the signal intensity peak at lower concentrations (0.6 mM) compared to the Gd-DTPA signal intensity that peaked at approximately 1.2 mM in this sequence.
In addition, samples of Gd2O3-DEG and Resovist® were prepared and tested under the same conditions as above. There were 6 different Gd and Fe concentrations between 0.1 and 1.5 mM. […]

In a further data set the test system is THP-1 cells. The experiment in a line: Monocyte studies: incubation, washing, T1/T2 measurement. It counts as cell-based. To be noted: 0.1-0.9 mM Gd, 2 h or 8 h at 37° C., washed twice. Here is the method: For monocyte experiments, THP-1 cells were cultured in RPMI 1640 medium with 10% fetal calf serum (GIBCO, Invitrogen, Carlsbad, Calif., USA) with additions of L-glutamate and penicillin/streptomycin solution (Invitrogen). Cells were counted and found 97% viable. Cells were treated with Gd2O3-DEG or Gd-DTPA in concentrations 0.1, 0.3, 0.6, and 0.9 mM. Cells of one well were left untreated. A control series was prepared of cell culture medium only with the different concentrations of Gd2O3-DEG particles. Two plates of 24 wells each were prepared as described above; one was incubated with the Gd2O3-DEG and Gd-DTPA for 2 h and the other one for 8 h at 37° C. After incubation cells were transferred to Falcon tubes and washed twice with medium and centrifugated for 8 minutes at 1100 rpm.

The conditions of data set [3]: Magnevist 0.1 mmol/kg, cited from earlier work.

In the case of `O=C([O-])CN(CCN(CC(=O)[O-])CC(=O)O)CCN(CC(=O)[O-])CC(=O)O.[Gd+3]` [Gd-DTPA], in data set [1], the r1 relaxivity constant was 4.86 ± 0.08 mM⁻¹ s⁻¹ and the r2 relaxivity constant came out at 5.53 ± 0.14 mM⁻¹ s⁻¹. In addition, the “Gd concentration at signal intensity peak” value in data set [2] is “approximately 1.2 mM”. Further, in the data set on THP-1 cells, the “Presence with cells after the washing procedure” value is “not present in the cell suspension after the washing”. For the same compound, the “detected plasma concentration of Gd” value in data set [3] (3 minutes after injection) is recorded as 0.6 mM. Besides, the “detected plasma concentration of Gd” value in data set [3] (60 minutes after injection) is 0.24 mM.
